Source: a melting point compilation (Tetko et al.; mined from patent text by program, amines drawn as free bases though some values may be those of a salt)

Row | SMILES | melting point
1 | Cc1cc(Cl)cc(C(=O)Nc2cccc(Cl)n2)n1 | 176 °C
2 | COc1cc(O)cc2c1-c1c(O)cccc1C2=O | 71 to 72 °C
3 | O=S1(=O)c2cccc3cccc(c23)N1CCN1CCC(CC2Cc3ccccc3C2)CC1 | 126 °C
4 | CCCCCCCCCCC#Cc1csc(CC(N)CO)c1 (centres undefined) | 85 to 135 °C
5 | COc1ccc(CN(CCCC#N)Cc2ccc(OC)cc2)cc1 | 56 to 58 °C
6 | COC(=O)C(=O)c1ccc(OCCOc2ccc(Oc3ccccc3)cc2)cc1 | 97 to 98 °C
7 | Cc1cc2sc3ncc(C(=O)Nc4nnn[nH]4)c(=O)n3c2cc1C | > 300 °C
8 | COc1c(-n2cccc2)cc(CC(C#N)=CNc2ccccc2)cc1-n1cccc1 | 152 °C
9 | COc1ccc(N2CCN(C(=O)C(c3ccccc3)n3cnc4[nH]ncc4c3=S)CC2)cc1 (centres undefined) | 114 to 118 °C
10 | O=C(O)C(CCN1C(=O)c2ccccc2C1=O)Oc1c(Br)cc(-c2ccc(-c3c(Cc4ccccc4)sc4ccccc34)cc2)cc1Br (centres undefined) | 113 to 115 °C
11 | CCc1cc2c(=O)n3cc(C(=O)O)ccc3nc2s1 | 255 to 257 °C
12 | Nc1ccncc1Nc1ccc2cn[nH]c2c1 | 214 to 216 °C
13 | CCOC(=O)C(C)(C)c1nc2ccc(Cl)nn2c1Cl | 66 to 67 °C
14 | CCCC1NS(=O)(=O)N(COC(=O)c2c(Cl)cccc2Cl)C1=O (centres undefined) | 95 to 97 °C
15 | N=C(N)c1ccc2cc(OC(=O)[C@H]3CC[C@H](CN)CC3)ccc2c1 | 147 °C
16 | Cc1ccc2c(c1)C(=O)CC21CNC(=O)C1 (centres undefined) | 162 to 164 °C
17 | COC(=O)CCCNC(=O)N1CCN(c2cc3c(cc2F)c(=O)c(C(=O)O)cn3C2CC2)CC1 | 198 to 200 °C
18 | CC1CCCCC1C(=O)Nc1ccc(-c2cnc(-c3ccc(NC(=O)C4CCCCC4)cc3)[nH]2)cc1 (centres undefined) | 221 to 223 °C
19 | Cc1ccc(S(=O)(=O)NC(C)P(=O)(Oc2ccccc2)c2ccccc2)cc1 (centres undefined) | 178 to 181 °C
20 | COc1cc(C)c(C(=O)c2c(Cl)cnc(Cl)c2C(F)(F)F)c(OC)c1OC | 106 to 109 °C
21 | CNc1cnc(-c2cccnc2)s1 | 141 to 146 °C

Row | SMILES | melting point
22 | Cc1cc(Nc2cc(F)c(F)cc2C(=O)O)n(-c2ccccn2)n1 | 247 to 248 °C
23 | O=c1c(Cl)c(Cl)cnn1COCc1ccccc1 | 60 to 64 °C
24 | CON(C)C(=O)c1ocnc1C | 59 to 60 °C
25 | COc1ccc(S(N)(=O)=O)cc1C(C)=O | 203 to 206 °C
26 | COc1cccc(N2CCCN(/C(C)=C(/C#N)C(N)=S)CC2)c1 | 129 to 131 °C
27 | Cc1ncc(C=O)c(N)n1 | 191 to 192 °C
28 | CCOC(=O)C(C)(C)Oc1ccc(C#N)cc1C | 46 °C
29 | Cn1c2cccc(Br)c2c2nc3ccccc3nc21 | 208 to 209 °C
30 | CCCCCCCCCCOc1cc2c(cc1CCC(=O)O)C(=O)c1cc(C(=O)O)ccc1-2 | 218 to 220 °C
31 | COC(=O)Nc1cc(C)on1 | 136 to 137 °C
32 | CCCCCCC(=O)CCCC(=O)O | 58 to 59 °C
33 | O=C(O)C1(CP(=O)(OCc2ccccc2)OCc2ccccc2)CCCC1 | 89 to 92 °C
34 | Cc1ccc(-c2nc(C)c(-c3ccnc(Nc4ccc(N5CCOCC5)cc4)n3)s2)cn1 | 244 to 245 °C
35 | COc1nc(SC)cnc1NS(=O)(=O)c1cccc(Cl)c1Cl | 141 to 142 °C
36 | CNc1nc(NC)nc(-c2ccc(-c3ccccc3)cc2)n1 | 198 to 200 °C
37 | O=C(N[C@H](Cc1cccc(OC(F)(F)C(F)F)c1)[C@@H](O)c1csc(-c2ccccc2)n1)c1ccc(F)c2ccccc12 (racemic) | 148 to 150 °C
38 | COc1cc2c(cc1OC)-c1cc(Cl)nc(=O)n1CC2 | 235 to 236 °C
39 | COc1cc(CCCC2OC(=O)NC2=O)ccc1OCc1coc(CCc2ccccc2)n1 (centres undefined) | 122 to 123 °C
40 | CN1C(=O)CC(c2ccccc2)C1C(O)C=Cc1ccc(F)cc1 (centres undefined) | 189 to 191 °C
41 | CCCN1CCN(c2cc3ccccc3c(=O)[nH]2)CC1 | 208 to 209 °C
42 | CCCCC1=CC(=C(Br)Br)OC1=O | 48 to 49 °C

Continued, values first:

Row | melting point | SMILES
43 | 133 to 135 °C | Cc1cnc(Oc2cccc(C(F)(F)F)c2)c(C(=O)Nc2ccc(F)cc2F)c1
44 | 170 to 171 °C | COC(=O)c1ccc2c(=O)n(CC(C)C)c(CNC(=O)OC(C)(C)C)c(-c3cccs3)c2c1
45 | 202 to 203 °C | COc1cc(OC)c2c(=O)[nH]c(-c3ccc(OCCNC(C)C)c(-c4ccc(S(C)(=O)=O)cc4C)n3)nc2c1
46 | 218 to 220 °C | COc1cc(OC)c(-c2cc3ccccc3[nH]2)cc1C=CC(=O)c1ccc(S(=O)(=O)NC(C)=O)cc1
47 | 135 to 138 °C | CCOC(=O)C1Cc2ccccc2N1C(=O)c1c(O)c2cc(OC)cc3c2n(c1=O)CCO3 (centres undefined)
48 | 202 °C | CCOC(=O)CCc1cc2c(Nc3ccc4[nH]ccc4c3)c(C#N)cnc2s1
49 | 236 to 238 °C | CCCCc1nc2cc(-c3ccccc3)cc(C(=O)O)c2n1Cc1ccccc1Cl
50 | 112 to 115 °C | Cc1ccc2c(NCc3ccc(NC(=O)c4ccc(F)cc4)cc3)nc(NCCc3ccccn3)nc2c1
51 | 137 to 139 °C | CCOc1nc(-c2ccc(F)cc2C)c2ccc(=O)n(-c3ccccc3F)c2n1
52 | 154 to 155 °C | O=C(O)Cc1cccc(Cc2nc3c(F)c(F)ccc3s2)c1
53 | 159 to 160 °C | CC(C)(C)c1cc(CN(c2cccnc2)S(=O)(=O)c2ccc([N+](=O)[O-])cc2)cc(C(C)(C)C)c1O
54 | 285 to 288 °C | CCN1CCN(Cc2ccc(CCn3cnc4cc(-c5ccc(Cl)cc5)sc4c3=O)cc2)C(=O)C1=O
55 | 143 °C | CCc1nc2c(C)nc(C)cc2n1-c1ccc(CCNC(=O)NS(=O)(=O)c2ccc(C)cc2)cc1
56 | 124 to 126 °C | O=C(CS(=O)(=O)c1ccccc1)c1ccnc(Cl)c1
57 | 109 to 111 °C | CC(C)c1cc(C(C)(C)C)cc(-c2ccc(F)cc2)c1O
58 | 127 °C | O=[N+]([O-])c1ccc(OC2OC(CO)C(O)C(OCc3ccccc3)C2O)cc1 (centres undefined)
59 | 117 to 118 °C | COc1ccc(COC(=O)C(=CNc2ncccc2OC(=S)N(C)C)C(=O)OCc2ccc(OC)cc2)cc1
60 | 194 to 195 °C | Cc1ccccc1CC(C(=O)Nc1cnc(Br)cn1)c1ccc(S(C)(=O)=O)cc1 (centres undefined)
61 | 84 to 89 °C | COC(=O)c1ccc(N=Cc2ccccc2)cn1
62 | 213 to 216 °C | CS(=O)(=O)c1ccc(-c2cnn(-c3ccc(S(N)(=O)=O)cc3)c(=O)c2-c2ccc(F)cc2)cc1
63 | 97 to 98 °C | CCOC(=O)c1ccc(/C=C(\C)c2cc3c(cc2OC)C(C)(C)CCC3(C)C)cc1
64 | 201 to 204 °C | COc1ccc(Cc2nc3c(N)nc4ccccc4c3n2CCOc2ccccc2)cc1
65 | 128 to 130 °C | CC(C)(C)OC(=O)NCc1ccc(N2CC(C(=O)N3CCN(CCC(=O)OCc4ccccc4)CC3)OC2=O)cc1 (centres undefined)
66 | 132 to 134 °C | COc1ccc(C(=O)Cc2ccc3ccccc3c2)cc1
67 | 109 to 112 °C | O=Cc1ccc(-c2cccc(-c3ccc(OC(F)(F)F)cc3)n2)cc1
68 | 68 to 69 °C | COC(=O)c1ccc(OCCCN(C(C)=O)c2ccc(Cl)cc2)cc1
69 | 148 to 149 °C | COc1ccc(S(=O)(=O)Nc2ccccc2NC(=O)c2ccc(OCc3ccccc3)cc2)cc1
